Laboratory results published in patent US8652838B2, “Platensimycin biosynthetic gene cluster of Streptomyces platensis” (Wisconsin Alumni Research Foundation, priority 2007, dated 2014).
≈ marks a conversion by molar mass, not a printed value. Where two headings read alike, the source gives them in different places.

Legend:
[1] = animal model studies; cited from earlier work
[2] = test system: Streptomyces avermitilis; assay: paper disk susceptibility of S. avermitilis; format: cell-based; settings: 0.5-4 μg on paper disk
From the text: (§1) FIGS. 6A-C: Engineering of S. platensis. (FIG. 6A) Additional biosynthetic intermediates and shunt metabolites isolated from the wild-type S. platensis MA7327 strain. (FIG. 6B) Production of PTM (●) and PTN (♦) by the engineered S. platensis SB12002 (iv) and SB12001 (iii) strains with the wild-type S. platensis MA7327 as a control under two fermentation conditions for PTM (i) and PTM and PTN (ii) production. (FIG. 6C) Susceptibility of S. avermitilis and S. albus J1074 to PTM and PTN: 1, negative controls; 2, 4 μg; 3, 4 μg; 4, 2 μg; 5, 1 μg; 6, 0.5 μg of PTM or PTN on each paper disk.
(§2) Having large quantity (multiple grams) of PTM and PTN in hand from the overproducers, the inventors systematically examined the sensitivity of a battery of Streptomyces towards PTM or PTN. Remarkably, they have identified strains that are sensitive to both PTM and PTN, as exemplified by Streptomyces avermitilis, or PTN but not PTM, as exemplified by Streptomyces albus J1074 (FIG. 6C). The differential sensitivity of the organisms tested towards PTM and PTN is consistent with the established mode of action for PTM and PTN (i.e., PTM as a FabB/F inhibitor while PTN as a FabB/F and FabH dual inhibitor)—targeting two essential proteins should lead to lower resistance potential than targeting only one. […]

[3] = test system: Streptococcus pneumoniae; settings: cited from earlier work
[4] = test system: S. aureus infection; settings: cited from earlier work
[5] = test system: Streptomyces albus J1074; assay: paper disk susceptibility of S. albus J1074; format: cell-based; settings: 0.5-4 μg on paper disk
From the text: as §1, §2

[6] = molecular target: T1, FabH (Staphylococcus aureus, UniProt Q8NXE2); settings: cited from earlier work
T1 sequence (Q8NXE2 1-313): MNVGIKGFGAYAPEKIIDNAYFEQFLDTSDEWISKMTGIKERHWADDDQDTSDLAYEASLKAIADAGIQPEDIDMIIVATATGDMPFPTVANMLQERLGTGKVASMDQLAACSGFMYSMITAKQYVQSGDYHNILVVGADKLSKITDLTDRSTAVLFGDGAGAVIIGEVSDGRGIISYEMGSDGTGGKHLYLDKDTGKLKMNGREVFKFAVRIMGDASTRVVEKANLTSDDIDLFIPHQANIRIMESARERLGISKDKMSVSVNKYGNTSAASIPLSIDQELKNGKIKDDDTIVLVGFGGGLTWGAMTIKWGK

[7] = test system: vancomycin-resistant E. faecium; settings: cited from earlier work
[8] = test system: Escherichia coli; settings: cited from earlier work
[9] = molecular target: T2, FabF (Staphylococcus aureus, UniProt Q5TKS0); settings: cited from earlier work
T2 sequence (Q5TKS0 1-403): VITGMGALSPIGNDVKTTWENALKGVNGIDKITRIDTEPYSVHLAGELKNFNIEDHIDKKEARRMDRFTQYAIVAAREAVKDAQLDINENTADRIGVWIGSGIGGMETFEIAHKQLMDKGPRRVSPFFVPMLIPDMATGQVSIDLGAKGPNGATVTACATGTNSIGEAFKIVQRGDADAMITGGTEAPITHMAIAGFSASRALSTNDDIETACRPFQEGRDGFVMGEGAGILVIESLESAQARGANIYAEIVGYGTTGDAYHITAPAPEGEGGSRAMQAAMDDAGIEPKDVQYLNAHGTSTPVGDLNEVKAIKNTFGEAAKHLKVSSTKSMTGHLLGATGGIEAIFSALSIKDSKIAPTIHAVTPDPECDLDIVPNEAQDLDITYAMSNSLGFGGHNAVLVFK

[10] = test system: mammalian cell; settings: cited from earlier work
[11] = test system: DNA, RNA, protein or cell wall biosynthesis; settings: whole-cell labeling; cited from earlier work
[12] = molecular target: T2, FabF; settings: 14C-radiolabeled malonyl-CoA, polyacrylamide gel electrophoresis; cited from earlier work
[13] = test system: S. aureus; settings: cited from earlier work
[14] = test system: lipid biosynthesis in S. aureus; settings: whole-cell labeling; cited from earlier work
[15] = molecular target: T1, FabH; settings: cited from earlier work; remark: listed apart in the source
[16] = test system: S. platensis MA7327; assay: antibiotic sensitivity of S. platensis MA7327; format: cell-based, Streptomyces platensis
From the text: The inventors have developed an efficient genetic system for in vivo manipulation of PTM/PTN biosynthesis in S. platensis MA7327 via E. coli-S. platensis conjugation. […] Although S. platensis protoplasts can be readily prepared and regenerated with high frequency, introduction of either replicative or integrative plasmid into S. platensis via protoplast-mediated transformation has not been successful (Kieser et al., 2000).

C=C1C[C@@]23C=CC(=O)[C@@](C)(CCC(=O)Nc4c(O)ccc(C(=O)O)c4O)[C@@H]2C[C@@H]1CC3 [platencin]
pharmacokinetics [1]: exceedingly poor pharmacokinetics | sensitivity of Streptomyces avermitilis [2]: sensitive | antibacterial activity compared to platensimycin ([3]; S. pneumoniae): decreased activity | reduction of S. aureus cfu in kidney ([4]; mouse, continuous infusion 150 μg/h, over 24 h): 3 log | in vivo efficacy ([4]; mouse, in vivo): potent in vivo efficacy | observed toxicity in vivo ([4]; mouse, in vivo): without any observed toxicity | sensitivity of Streptomyces albus J1074 [5]: sensitive | FabH inhibition [6]: inhibits FabH | antibacterial activity compared to platensimycin [7]: increased antibacterial activity | antibacterial activity compared to platensimycin ([8]; efflux-negative E. coli): increased antibacterial activity

C[C@]12C[C@@]34C=CC(=O)[C@@](C)(CCC(=O)Nc5c(O)ccc(C(=O)O)c5O)C3[C@H](CC1C4)O2 (stereo partly shown) [PTM, platensimycin]
pharmacokinetics [1]: exceedingly poor pharmacokinetics | sensitivity of Streptomyces avermitilis [2]: sensitive | minimal inhibitory concentration [3]: 2.5 µM (≈ 1.1 µg/mL) | decrease of S. aureus infection ([4]; mouse, 100 μg/h intravenously with a continuous pump, over 24 hrs): 10^4-10^5 fold | greater potency than cerulenin as inhibitor of FabF ([9]; relative to cerulenin): 200 fold | IC50 ([9]; single enzyme inhibition assays): < 0.05 µM | mammalian cell toxicity [10]: Low | concentration without inhibition of DNA, RNA, protein or cell wall biosynthesis [11]: > 500 µg/mL | FabH inhibition [6]: does not inhibit FabH to any significant extent | preference for FabF inhibition relative to FabH inhibition [12]: 838 fold | minimal inhibitory concentration [13]: 1 µM (≈ 0.441 µg/mL) | IC50 inhibition of lipid biosynthesis [14]: 0.1 µg/mL | inhibition of S. aureus FabH [15]: weak inhibition | antibacterial activity ([8]; efflux-negative Escherichia coli): showed antibacterial activity | effectiveness against Gram-negative Escherichia coli ([8]; tolC dependent efflux): not very effective | antibacterial activity ([8]; wild-type E. coli): not against wild-type E. coli

CN[C@@H]1[C@@H](O[C@H]2O[C@H](CO)[C@@H](N)[C@H](O)[C@H]2O)OC2C[C@@H](N)[C@@H](O[C@H]3[C@H](O)[C@@H](O)[C@H](N)C[C@@H]3N)OC2[C@@H]1O (stereo partly shown) [apramycin]
concentration giving complete inhibition of growth [16]: 25 µg/mL

NC[C@H]1O[C@H](O[C@H]2[C@H](O)[C@@H](O[C@H]3O[C@H](CO)[C@@H](O)[C@H](N)[C@H]3O)[C@H](N)C[C@@H]2N)[C@H](O)[C@@H](O)[C@@H]1O [kanamycin]
concentration giving complete inhibition of growth [16]: 25 µg/mL

C=C(NC(=O)C(=C)NC(=O)c1csc(C2=N[C@@H]3c4csc(n4)[C@H]4NC(=O)c5csc(n5)[C@H]([C@](C)(O)[C@@H](C)O)NC(=O)[C@H]5CSC(=N5)/C(=C/C)NC(=O)[C@H]([C@@H](C)O)NC(=O)c5csc(n5)[C@]3(CC2)NC(=O)[C@H](C)NC(=O)C(=C)NC(=O)[C@H](C)NC(=O)[C@H]([C@@H](C)CC)N[C@@H]2C=Cc3c([C@H](C)O)cc(nc3[C@H]2O)C(=O)O[C@@H]4C)n1)C(N)=O [thiostrepton]
concentration giving complete inhibition of growth [16]: 10 µg/mL

platensimycin [PTM]
clearing S. aureus infection from a mouse model ([4]; high doses): effective in clearing S. aureus infection

CC[C@H]1OC(=O)[C@H](C)[C@@H](O[C@H]2C[C@@](C)(OC)[C@@H](O)[C@H](C)O2)[C@H](C)[C@@H](O[C@@H]2O[C@H](C)C[C@H](N(C)C)[C@H]2O)[C@](C)(O)C[C@@H](C)C(=O)[C@H](C)[C@@H](O)[C@]1(C)O [erythromycin]
concentration giving complete inhibition of growth [16]: 10 µg/mL
